The results in this text go back to publication PMC6143625, “A high throughput screen for next-generation leads targeting malaria parasite transmission” (Nature Communications, 2018).

Where only a bound is given, the exact number is not on record here.

Assay [1] deals with P. falciparum stage V male gametocytes (male gamete formation). Description: P. falciparum dual gamete formation assay (Pf DGFA), male readout (exflagellation), 48 h carry-over format. The format is cell-based, Plasmodium falciparum NF54. Conditions: primary screen, 2 uM, 48 h incubation, single replicate. The protocol: (§1) P. falciparum NF54 strain (originally isolated from an imported malaria case in the Netherlands in the 1980s; BEI Resources, cat. no. MRA-1000) asexual and sexual stages culture was performed as previously described. Gametocyte cultures were initiated at 1% asexual ring stage parasitaemia and 4% haematocrit in 40 ml final volume. To induce gametocyte production, complete culture medium (CM) (RPMI 1640 supplemented with 25 mM HEPES, 50 µg ml^−1 hypoxanthine, 2 g l^−1 NaHCO3 and 10% pooled human male type A+ serum) was replaced daily for 14 days without fresh erythrocyte addition. Human serum was obtained from Interstate Blood Bank, A^+ serotype; no aspirin 2 h before drawing and no antimalarials 2 weeks before drawing. On day 14 after culture induction, gametocyte production was assessed by thin smear and Giemsa staining, and exflagellation accurately counted in a haemocytometer. Gametocyte cultures with >0.2% exflagellation (compared to total erythrocyte cell number) were deemed acceptable for use in the Pf DGFA. Note, all human biological samples were sourced ethically and their research use was in accord with the terms of the informed consents under an IRB/EC approved protocol.
(§2) In screening mode, the assay was performed as described in Delves et al.[35] with a mean Z′ factor of 0.56 ± 0.14 (SD) (male) and 0.71 ± 0.17 (SD) (female). Pooled mature gametocyte cultures with the capacity to yield >0.2% exflagellation (of total cells) were diluted in CM to 14 million cells per ml and so that 700,000 cells were dispensed in 50 µl into each well of the warmed 384-well screening plates. Parasites were incubated in the plates with compounds for 48 h in a humidified chamber under 92%N2/5% CO2/3% O2 gas mix before gamete formation was triggered by addition of 10 µl per well ookinete medium (RPMI 1640 supplemented with 25 mM HEPES, 50 µg ml^−1 hypoxanthine, 2 g l^−1 NaHCO3, 100 µM xanthurenic acid) containing 0.5 µg ml^−1 anti-Pfs25 clone 4B7 (BEI Resources, cat. no. MRA-315) conjugated to the fluorophore Cy3 (GE Healthcare), and also by cooling the plate at 4 °C for 4 min and then a further 5 min at 28 °C. Exflagellation was recorded immediately by brightfield microscopy using a Nikon Ti-E widefield microscope at ×4 objective, ×1.5 zoom, recording a 10-frame video time-lapse over 2 s for each well. Afterwards, plates were incubated in the dark at 28 °C for a further 24 h to allow female gametes to maximally express Pfs25 on their surface. Female gamete formation was recorded by single-image fluorescence microscopy using the same microscope and magnification as above. Exflagellation and female gamete formation were quantified by specific algorithms designed with the open-source ICY Image Analysis software.
(§3) Assay performance statistics, such as signal to background ratio, Z′ and robust 3×SD activity cut-off were calculated using templates in ActivityBase XE (IDBS, Guilford, Surrey, UK). Hit population analysis and visualisation were conducted using Spotfire DecisionSite (Spotfire, Inc., Somerville, Massachusetts). The pIC50 (−log IC50) values were obtained using the ActivityBase XE nonlinear regression function in the full curve analysis bundle. In screening mode, the Pf DGFA achieved a mean Z′ factor of 0.56 ± 0.14 (SD) (male) and 0.71 ± 0.17 (SD) (female).

The test system of assay [2] is P. falciparum stage V female gametocytes (female gamete formation). Description: P. falciparum dual gamete formation assay (Pf DGFA), female readout (Pfs25 expression), 48 h carry-over format. The format is cell-based, Plasmodium falciparum NF54. As to conditions: primary screen, 2 uM, 48 h incubation, single replicate. The protocol:
as §1
as §2, with “Parasites were incubated in the plates with compounds for 48 h in a humidified chamber under” left out
as §3

`COC(=O)C1CCCN1C(=O)c1ccc(-n2nc(C)cc2C)cc1` (stereo not drawn) [DDD01075977]: in assay [1], the “%Inhibition Male @2uM” value is listed as below 30%. In assay [2], the “%Inhibition Female @2uM” value came out at 33.22%.
`Fc1ccc(-c2nnc(CNC3CCc4ncnn4C3)o2)cc1` (stereo not drawn) [DDD01076055]: the “%Inhibition Male @2uM” value in assay [1] is listed as below 30%. In addition, the “%Inhibition Female @2uM” value in assay [2] is given as 36.38%.
Regarding `Cc1noc(CS(=O)(=O)C(C)C(=O)N(C)c2ccccc2)n1` (stereo not drawn) [DDD01076606], in assay [1], the “%Inhibition Male @2uM” value amounted to 31.49%. Moreover, the “%Inhibition Female @2uM” value in assay [2] is on record as below 30%.
Consider `CN(C)C(=O)c1ccc(NCCNc2ccc3ccccc3n2)nc1` [DDD01076923], for which the “%Inhibition Male @2uM” value in assay [1] turned out to be 31.80%. For the same compound, the “%Inhibition Female @2uM” value in assay [2] is below 30%.
Regarding `CN(CC(N)=O)C(=O)C1Cc2cc(Cl)ccc2O1` (stereo not drawn) [DDD01077287], in assay [1], the “%Inhibition Male @2uM” value is below 30%. In assay [2], the “%Inhibition Female @2uM” value is recorded as 46.87%.
For `O=S(=O)(NC1CCCCC12OCCO2)c1cc(F)cc(F)c1` (stereo not drawn) [DDD01077321], in that order: below 30% and 41.54%.
As to `CC(CCc1ccccc1)N1CCC(C(=O)Nc2cnccn2)CC1` (stereo not drawn) [DDD01077885], the “%Inhibition Male @2uM” value in assay [1] was 52.25%. The “%Inhibition Female @2uM” value in assay [2] was below 30%.
On to `CC(C)c1nsc(N2CCc3sccc3C2)n1` [DDD01078291], for which, in assay [1], the “%Inhibition Male @2uM” value is recorded as 38.07%. Further, in assay [2], the “%Inhibition Female @2uM” value is given as below 30%.
The corresponding values for `CSc1ccc(OCCN2CCNC(=O)CC2)cc1` [DDD01078342] are below 30% and 31.10%.
The corresponding values for `CC(CNC(=O)c1cnc[nH]1)Oc1ccc(Cl)cc1` (stereo not drawn) [DDD01078520] are below 30% and 32.98%.
The corresponding values for `Cc1cc(C)c(C(=O)N2CCc3c(ncn3CCc3ccccc3)C2)[nH]1` [DDD01078816] are below 30% and 31.51%.
As for `CCS(=O)(=O)c1ccc(N2CCC(NC(C)=O)CC2)cc1` [DDD01080141], the “%Inhibition Male @2uM” value in assay [1] is below 30%. In assay [2], the “%Inhibition Female @2uM” value is 30.47%.
The corresponding values for `CCN(CC)CC(=O)NCCc1csc(N2CCCC2)n1` [DDD01080188] are below 30% and 40.13%.
For `Cc1ccc(C2COCCN2C(=O)c2ccc(CN(C)C)cc2)o1` (stereo not drawn) [DDD01080189], the “%Inhibition Male @2uM” value in assay [1] is recorded as below 30%. The “%Inhibition Female @2uM” value in assay [2] is 41.68%.
As to `NC(=O)c1ccc(N2CCCCC2)c(NC(=O)c2cc(Br)ccc2F)c1` [DDD01080647], the “%Inhibition Male @2uM” value in assay [1] is on record as below 30%. The “%Inhibition Female @2uM” value in assay [2] was 45.72%.
Turning to `CCc1cnc(CN(C(C)=O)C2CCN(CCS(C)(=O)=O)C2)o1` (stereo not drawn) [DDD01081064], in assay [1], the “%Inhibition Male @2uM” value was 46.67%. Besides, the “%Inhibition Female @2uM” value in assay [2] is reported as below 30%.
For `CCOC1CCC2(CCN(C(=O)c3csnn3)CC2)c2ccccc21` (stereo not drawn) [DDD01081288], in that order: 95.81% and below 30%.
For `CS(=O)(=O)N1Cc2ccnn2CC(C(=O)NCc2cccnc2)C1` (stereo not drawn) [DDD01081357], in that order: 43.36% and below 30%.
The corresponding values for `COc1ccc2c(c1)C1(CCNCC1)CC2NC1CC1` (stereo not drawn) [DDD01081368] are 45.77% and below 30%.
For `O=C1CC[C@@H]2[C@@H](CCN2S(=O)(=O)C2CC2)N1CC1CC1` [DDD01081437], the “%Inhibition Male @2uM” value in assay [1] came to 31.40%. Further, in assay [2], the “%Inhibition Female @2uM” value is recorded as below 30%.
As to `c1c(CN2CCOCC2)nc2n1CCN(CC1CC1)C2` [DDD01081604], the “%Inhibition Male @2uM” value in assay [1] is 36.99%. In assay [2], the “%Inhibition Female @2uM” value is given as below 30%.
For `CN(C)[C@@H]1CCN(S(C)(=O)=O)[C@H]1Cc1ccccc1` [DDD01081694], in that order: 32.12% and below 30%.
The corresponding values for `CCc1cnc(N2CC[C@H]3[C@@H]2CCC(=O)N3c2ccccc2)nc1` [DDD01081766] are 33.06% and below 30%.
Consider `CC(C)n1nc(CN2CCCC2=O)c2c1CN(C(=O)c1ccc[nH]1)C2` [DDD01081769], for which, in assay [1], the “%Inhibition Male @2uM” value is on record as below 30%. Also, the “%Inhibition Female @2uM” value in assay [2] is 30.49%.
The corresponding values for `O=C(c1ccoc1)N1CCOC2(COCCN(CC3CC3)C2)C1` (stereo not drawn) [DDD01082156] are below 30% and 30.05%.
Regarding `CC(C)N(C)Cc1cncc2c1CCN(CC(=O)N(C)C)C2` [DDD01082190], the “%Inhibition Male @2uM” value in assay [1] is below 30%. The “%Inhibition Female @2uM” value in assay [2] was 42.20%.
For `CC1c2ncc(Cn3cccn3)n2CCN1c1ncccn1` (stereo not drawn) [DDD01082239], the “%Inhibition Male @2uM” value in assay [1] is below 30%. Also, in assay [2], the “%Inhibition Female @2uM” value came to 34.70%.
For `CCCN1CCC(c2nc3ccc(-c4cccc(OC)c4)cn3n2)CC1` [DDD01082327], in that order: below 30% and 35.67%.
As to `CCOCC(=O)N1CCc2nc(C)nc(NC(C)C)c2CC1` [DDD01082409], the “%Inhibition Male @2uM” value in assay [1] was found to be 45.90%. Also, the “%Inhibition Female @2uM” value in assay [2] was below 30%.
For `O=C(NC1CC1)[C@H]1CC[C@@H]2[C@@H](CCN2CCOCc2ccccc2)O1` [DDD01082763], in that order: 87.75% and below 30%.
For `Cn1cncc1C(=O)N1C[C@@H]2CCN(c3cnccn3)C[C@@H]2C1` [DDD01082777], in that order: below 30% and 40.85%.
In the case of `O=S(=O)(c1ccccc1)N1CCC2(CCCN2Cc2ccccc2Cl)C1` (stereo not drawn) [DDD01083172], in assay [1], the “%Inhibition Male @2uM” value amounted to 37.32%. Besides, the “%Inhibition Female @2uM” value in assay [2] is listed as below 30%.
Take `CS(=O)(=O)NCc1nnc2n1CCN(Cc1cccnc1)C2` [DDD01083181]: the “%Inhibition Male @2uM” value in assay [1] was determined as 31.87%. In assay [2], the “%Inhibition Female @2uM” value was below 30%.
The corresponding values for `COc1ccc(CN2CC[C@@H](O)[C@@H]2Cc2cnn(C)c2)cc1` [DDD01083182] are 38.13% and below 30%.
The corresponding values for `CC1=N[C@@]2(CC[C@@H]3CN(S(=O)(=O)CC(C)C)C[C@@H]32)C(=O)N1CC1CC1` [DDD01083262] are below 30% and 94.03%.
As to `CN(C)C(=O)N1CCCC2(CCN(c3ccsc3)C2=O)C1` (stereo not drawn) [DDD01083808], in assay [1], the “%Inhibition Male @2uM” value is listed as below 30%. Also, the “%Inhibition Female @2uM” value in assay [2] is recorded as 43.49%.
For `CN(C)[C@@H]1CCN(C(=O)Cc2cccs2)[C@H]1Cc1ccncc1` [DDD01083822], in that order: 35.35% and below 30%.
With `O=C(c1ccnnc1)N1C[C@H](OCc2ccccn2)[C@H]2COC[C@H]21` [DDD01084503], the “%Inhibition Male @2uM” value in assay [1] is reported as below 30%. In addition, in assay [2], the “%Inhibition Female @2uM” value turned out to be 32.17%.
As for `CN(C)CCN1CCN(C)c2nc(-c3ccccc3)ncc2C1=O` [DDD01235874], the “%Inhibition Male @2uM” value in assay [1] is 34.25%. The “%Inhibition Female @2uM” value in assay [2] is below 30%.
